The species named for assay [1] is Cavia porcellus. Put plainly: Induction of delayed type hypersensitivity in ABA-BSA immunized Hartley Guinea pigs assessed as reduction in skin lesions at 100 ug measured for 48 hrs. Format: functional. The note with it: dose 100 µg.
The target in assay [2] is T1, Nuclear factor NF-kappa-B complex (Homo sapiens) (UniProt Q00653+P19838+Q04206). Nature of the assay: Activation of NF-KappaB in HEK293T cells assessed as fold change. The note with it: filed as activator. Format: cell-based.
For assay [3], the species on record is Cavia porcellus. Nature of the assay: Induction of delayed type hypersensitivity in ABA-BSA immunized Hartley Guinea pigs assessed as reduction in skin lesions at 100 ug measured for 24 hrs. Type of assay: functional. Conditions: dose 100 µg.
The target of assay [4] is T1, Nuclear factor NF-kappa-B complex (Homo sapiens). Nature of the assay: Activation of NF-KappaB (unknown origin) expressed in HEK293T cells assessed as fold change at 10 ng incubated for 12 hrs by Renilla luciferase assay. Type of assay: cell-based. Conditions: filed as activator.
Assay [5] has the same target. Nature of the assay: Activation of NF-KappaB (unknown origin) expressed in HEK293T cells assessed as fold change at 1000 ng incubated for 12 hrs by Renilla luciferase assay. Type of assay: cell-based. The note with it: filed as activator.
Assay [6] has the same target. Put plainly: Activation of NF-KappaB (unknown origin) expressed in HEK293T cells assessed as fold change at 100 ng incubated for 12 hrs by Renilla luciferase assay. Type of assay: cell-based. The note with it: filed as activator.
The target is the same in assay [7]. Nature of the assay: Activation of NF-kappaB in HEK-Blue hNOD2 cells assessed as fold change at 10 nM incubated for 48 hrs by SEAP reporter assay. Format: cell-based. The note with it: filed as activator. For orientation: Reporter assays use an easily measured gene product as a stand-in for the process of interest.
Assay [8] shares this target. Nature of the assay: Activation of NF-kappaB in HEK-Blue hNOD2 cells assessed as fold change at 100 nM incubated for 48 hrs by SEAP reporter assay. The note with it: filed as activator. Type of assay: cell-based.
Assay [9] has the same target. Put plainly: Activation of NF-kappaB in HEK-Blue hNOD2 cells assessed as fold change at 1000 nM incubated for 48 hrs by SEAP reporter assay. Conditions: filed as activator. Format: cell-based.
Assay [10] addresses Nucleotide-binding oligomerization domain-containing protein 2 (Homo sapiens, UniProt Q9HC29). Nature of the assay: Activation of NOD2 in HEK293T cells. Type of assay: cell-based. The note with it: filed as activator.

T1 sequence (P19838 whole entry, looked up): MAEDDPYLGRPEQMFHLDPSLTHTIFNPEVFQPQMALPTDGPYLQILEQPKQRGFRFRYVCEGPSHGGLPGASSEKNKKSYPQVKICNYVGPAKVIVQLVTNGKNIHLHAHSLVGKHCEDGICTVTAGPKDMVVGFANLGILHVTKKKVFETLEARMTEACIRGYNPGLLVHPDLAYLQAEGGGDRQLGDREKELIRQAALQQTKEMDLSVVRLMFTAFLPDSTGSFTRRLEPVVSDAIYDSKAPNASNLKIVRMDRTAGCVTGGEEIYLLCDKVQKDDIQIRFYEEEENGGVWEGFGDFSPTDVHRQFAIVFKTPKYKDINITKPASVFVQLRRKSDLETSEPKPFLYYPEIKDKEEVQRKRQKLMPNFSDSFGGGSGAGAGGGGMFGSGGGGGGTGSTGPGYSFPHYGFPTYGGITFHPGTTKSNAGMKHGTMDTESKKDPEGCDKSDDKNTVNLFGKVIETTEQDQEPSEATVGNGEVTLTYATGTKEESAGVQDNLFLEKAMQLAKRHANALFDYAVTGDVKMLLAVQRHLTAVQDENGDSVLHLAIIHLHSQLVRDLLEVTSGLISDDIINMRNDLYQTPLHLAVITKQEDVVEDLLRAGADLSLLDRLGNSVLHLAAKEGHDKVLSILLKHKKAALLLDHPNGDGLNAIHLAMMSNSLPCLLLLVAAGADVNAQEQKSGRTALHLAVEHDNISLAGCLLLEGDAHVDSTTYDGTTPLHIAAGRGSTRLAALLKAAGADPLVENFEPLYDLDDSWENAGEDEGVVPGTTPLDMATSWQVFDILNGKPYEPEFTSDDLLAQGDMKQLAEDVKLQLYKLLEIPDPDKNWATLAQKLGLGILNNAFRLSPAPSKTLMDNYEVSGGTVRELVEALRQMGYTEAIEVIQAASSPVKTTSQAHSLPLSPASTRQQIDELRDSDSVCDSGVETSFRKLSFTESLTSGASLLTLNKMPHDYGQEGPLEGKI
T1 sequence (Q00653 whole entry, looked up): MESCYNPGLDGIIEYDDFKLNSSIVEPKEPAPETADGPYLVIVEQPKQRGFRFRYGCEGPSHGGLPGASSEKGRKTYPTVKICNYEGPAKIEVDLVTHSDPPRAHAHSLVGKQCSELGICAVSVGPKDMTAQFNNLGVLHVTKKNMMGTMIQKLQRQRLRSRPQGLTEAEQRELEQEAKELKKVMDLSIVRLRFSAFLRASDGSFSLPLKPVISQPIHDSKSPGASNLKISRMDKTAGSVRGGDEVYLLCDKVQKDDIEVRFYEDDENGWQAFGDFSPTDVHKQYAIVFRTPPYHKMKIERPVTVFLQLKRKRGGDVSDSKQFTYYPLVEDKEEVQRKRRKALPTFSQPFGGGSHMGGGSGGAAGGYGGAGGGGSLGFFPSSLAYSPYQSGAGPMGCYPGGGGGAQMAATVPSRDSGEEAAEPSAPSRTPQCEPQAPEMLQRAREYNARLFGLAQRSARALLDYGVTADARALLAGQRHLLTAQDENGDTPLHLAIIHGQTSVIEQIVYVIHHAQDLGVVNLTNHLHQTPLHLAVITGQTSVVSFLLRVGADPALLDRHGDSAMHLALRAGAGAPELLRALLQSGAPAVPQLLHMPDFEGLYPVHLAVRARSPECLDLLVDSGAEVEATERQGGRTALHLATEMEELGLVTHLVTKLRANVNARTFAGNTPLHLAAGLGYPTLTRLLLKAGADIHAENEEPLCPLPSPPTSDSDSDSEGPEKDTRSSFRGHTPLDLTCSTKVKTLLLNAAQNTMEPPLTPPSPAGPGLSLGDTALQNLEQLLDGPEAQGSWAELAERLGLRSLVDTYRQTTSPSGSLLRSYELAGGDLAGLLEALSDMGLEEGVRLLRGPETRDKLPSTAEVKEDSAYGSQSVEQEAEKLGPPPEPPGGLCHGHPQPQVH
T1 sequence (Q04206 whole entry, looked up): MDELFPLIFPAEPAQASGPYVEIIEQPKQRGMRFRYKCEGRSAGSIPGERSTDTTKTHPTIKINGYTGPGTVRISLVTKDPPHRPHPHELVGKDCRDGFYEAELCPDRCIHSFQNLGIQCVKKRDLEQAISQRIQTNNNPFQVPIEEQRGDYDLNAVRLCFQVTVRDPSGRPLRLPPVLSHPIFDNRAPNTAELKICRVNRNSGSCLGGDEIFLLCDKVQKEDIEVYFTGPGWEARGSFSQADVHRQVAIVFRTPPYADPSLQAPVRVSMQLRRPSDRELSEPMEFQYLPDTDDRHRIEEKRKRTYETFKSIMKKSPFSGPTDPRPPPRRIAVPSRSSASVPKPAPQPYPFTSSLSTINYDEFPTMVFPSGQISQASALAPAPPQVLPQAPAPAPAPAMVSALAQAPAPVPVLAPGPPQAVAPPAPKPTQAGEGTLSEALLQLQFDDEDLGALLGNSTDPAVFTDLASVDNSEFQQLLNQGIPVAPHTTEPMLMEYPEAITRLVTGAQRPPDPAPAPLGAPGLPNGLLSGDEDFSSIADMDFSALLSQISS
Chain of Nucleotide-binding oligomerization domain-containing protein 2 (Q9HC29 whole entry, the tested form may be a part): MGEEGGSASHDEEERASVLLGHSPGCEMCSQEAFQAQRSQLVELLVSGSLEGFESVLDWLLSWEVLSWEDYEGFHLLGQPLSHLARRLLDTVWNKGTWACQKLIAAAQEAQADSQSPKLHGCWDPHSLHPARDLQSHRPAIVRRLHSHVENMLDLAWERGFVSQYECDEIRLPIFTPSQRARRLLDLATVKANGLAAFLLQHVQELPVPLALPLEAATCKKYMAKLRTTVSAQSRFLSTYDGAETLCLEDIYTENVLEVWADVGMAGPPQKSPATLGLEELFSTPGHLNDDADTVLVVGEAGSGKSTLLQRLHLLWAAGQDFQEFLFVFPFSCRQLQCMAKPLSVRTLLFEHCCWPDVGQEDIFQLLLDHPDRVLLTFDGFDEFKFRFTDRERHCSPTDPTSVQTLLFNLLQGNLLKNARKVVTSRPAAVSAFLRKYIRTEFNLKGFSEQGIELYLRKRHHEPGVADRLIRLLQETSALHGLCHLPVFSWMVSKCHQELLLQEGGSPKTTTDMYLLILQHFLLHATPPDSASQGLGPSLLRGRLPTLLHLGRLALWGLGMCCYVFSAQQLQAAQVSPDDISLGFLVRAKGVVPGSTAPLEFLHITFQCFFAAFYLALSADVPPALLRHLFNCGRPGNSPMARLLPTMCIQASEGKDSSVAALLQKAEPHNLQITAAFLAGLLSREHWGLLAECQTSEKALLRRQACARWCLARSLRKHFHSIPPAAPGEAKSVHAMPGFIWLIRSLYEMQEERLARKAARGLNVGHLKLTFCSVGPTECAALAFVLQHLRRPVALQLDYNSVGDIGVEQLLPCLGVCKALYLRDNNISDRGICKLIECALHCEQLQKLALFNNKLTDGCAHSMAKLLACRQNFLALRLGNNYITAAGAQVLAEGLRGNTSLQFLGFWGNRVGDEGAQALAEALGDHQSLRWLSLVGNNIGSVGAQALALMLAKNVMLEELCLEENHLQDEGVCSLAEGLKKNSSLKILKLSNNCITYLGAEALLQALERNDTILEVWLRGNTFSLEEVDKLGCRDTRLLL

As to `CC(=O)N[C@@H]1[C@@H](O[C@H](C)C(=O)N[C@@H](C)C(=O)N[C@H](CCC(=O)O)C(N)=O)[C@H](O)[C@@H](CN)O[C@H]1O`, the Activity came out at 10.9 mm in the assay listed under Cavia porcellus [1] and 17.3 mm in the assay filed under Cavia porcellus [3]. Moreover, the fold change (FC) in assay [2] is 9.15.

For the compound `CC(=O)N[C@@H]1[C@@H](O[C@H](C)C(=O)N[C@H](C)C(=O)N[C@H](CCC(=O)O)C(N)=O)[C@H](O)[C@@H](CO)O[C@H]1O`, the figures for the fold change (FC) in assay [4], in assay [5] and in [6] were 1.3, 1.6 and 1, respectively.

For the compound `CC(=O)N[C@@H]1[C@@H](O[C@H](C)C(=O)N[C@@H](C)C(=O)N[C@H](CCC(=O)O)C(N)=O)[C@H](O)[C@@H](CNC(=O)CCSSCCNC(=O)CCCC[C@@H]2SC[C@@H]3NC(=O)N[C@@H]32)O[C@H]1O`, the fold change (FC) in [2] amounted to 7.05.

For `CC(=O)N[C@H]1[C@H](OCc2ccccc2)O[C@H](CO)[C@@H](N)[C@@H]1O[C@H](C)C(=O)N[C@@H](C)C(=O)N[C@H](CCC(=O)O)C(N)=O`, the fold change (FC) in assay [7] came to 1.1; in assay [8], 1.2; in [9], 1.35.

With `CNCc1cn([C@H]2[C@H](O[C@H](C)C(=O)N[C@@H](C)C(=O)N[C@H](CCC(=O)O)C(N)=O)[C@@H](NC(C)=O)[C@H](O)O[C@@H]2CO)nn1`, the results for the fold change (FC) in assay [7], in assay [8] and in assay [9] were 1.1, 1.05 and 1, respectively.

For `CC(=O)N[C@@H]1[C@@H](O[C@H](C)C(=O)N(C)[C@@H](C)C(=O)N[C@H](CCC(=O)O)C(N)=O)[C@H](O)[C@@H](CO)O[C@H]1O`, the fold change (FC) is 1.5 in [4], 3 in [5] and 1.1 in [6].

With `CC(=O)N[C@@H]1[C@@H](O[C@H](C)C(=O)N[C@@H](C)C(=O)N[C@H](CCC(=O)O)C(N)=O)[C@H](O)[C@@H](CNC(=O)CCOCCOCCOCCOCCOCCOCCOCCOCCOCCOCCOCCOCCNC(=O)CCCC[C@@H]2SC[C@@H]3NC(=O)N[C@@H]32)O[C@H]1O`, the fold change (FC) in assay [2] is 3.

With `CC(=O)N[C@@H]1[C@@H](O)[C@H](O[C@@H]2O[C@H](CO)[C@@H](O)[C@H](O[C@H](C)C(=O)N[C@@H](C)C(=O)N[C@H](CCC(=O)N[C@@H](CCCCN)C(=O)O)C(N)=O)[C@H]2NC(C)=O)[C@@H](CO)O[C@H]1O`, the Activity in assay [10] was found to be 100 mU.

For `CC(=O)N[C@@H]1[C@@H](O[C@H](C)C(=O)N[C@@H](C(=O)N[C@H](CCC(=O)O)C(N)=O)C(C)C)[C@H](O)[C@@H](CO)O[C@H]1O`, the fold change (FC) in assay [4] was 1; in assay [5], 1.1; in [6] it was 1.05.

In the case of `CC(=O)N[C@@H]1[C@@H](O[C@H](C)C(=O)N[C@@H](C)C(=O)N[C@@H](CCC(=O)O)C(N)=O)[C@H](O)[C@@H](CN)O[C@H]1O`, the fold change (FC) in [2] stood at 1.1.

`CC(=O)N[C@@H]1[C@@H](O[C@H](C)C(=O)N[C@@H](C)C(=O)N[C@H](CCC(=O)O)C(N)=O)[C@H](O[C@@H]2O[C@H](CO)[C@@H](O)[C@H](O)[C@H]2NC(C)=O)[C@@H](CO)O[C@H]1O` gave an Activity in assay [10] of 1000 mU.

For the compound `CC(=O)N[C@@H]1[C@@H](O)[C@H](O[C@@H]2O[C@H](CO)[C@@H](O)[C@H](O[C@H](C)C(=O)N[C@@H](C)C(=O)N[C@H](CCC(=O)O)C(N)=O)[C@H]2NC(C)=O)[C@@H](CO)O[C@H]1O`, the Activity in assay [10] came to 900 mU.

Consider `CC(=O)N[C@@H]1[C@@H](O[C@H](C)C(=O)N[C@@H](C)C(=O)N[C@H](CCC(=O)O)C(N)=O)[C@H](O)[C@@H](CNC(=O)CCOCCOCCOCCOCCNC(=O)CCCC[C@@H]2SC[C@@H]3NC(=O)N[C@@H]32)O[C@H]1O`, for which the fold change (FC) in assay [2] amounted to 9.45.

Turning to `CC(=O)N[C@@H]1[C@@H](O[C@H](C)C(=O)N[C@@H](C)C(=O)N[C@@H](CCC(=O)O)C(N)=O)[C@H](O)[C@@H](CNC(=O)CCOCCOCCOCCOCCOCCOCCOCCOCCOCCOCCOCCOCCNC(=O)CCCC[C@@H]2SC[C@@H]3NC(=O)N[C@@H]32)O[C@H]1O`, the fold change (FC) in assay [2] is 1.05.

Take `CC(=O)N[C@H]1[C@H](OCc2ccccc2)O[C@H](CO)[C@@H](N=[N+]=[N-])[C@@H]1O[C@H](C)C(=O)N[C@@H](C)C(=O)N[C@H](CCC(=O)O)C(N)=O`: the fold change (FC) in assay [7] was determined as 1.3; in [8], 1.65; in [9], 3.15.

`CC(=O)N[C@@H]1[C@@H](O[C@H](C)C(=O)NCC(=O)N[C@H](CCC(=O)O)C(N)=O)[C@H](O)[C@@H](CO)O[C@H]1O`: the fold change (FC) in [4] amounted to 1.3; in [5], 9.8; in [6], 2.8.

With `CC(=O)N[C@@H]1[C@@H](O[C@H](C)C(=O)N2CCC[C@H]2C(=O)N[C@H](CCC(=O)O)C(N)=O)[C@H](O)[C@@H](CO)O[C@H]1O`, the fold change (FC) in assay [4] was determined as 1.4; in [5], 1.5; in assay [6], 1.3.

Turning to `CC(=O)N[C@@H]1[C@@H](O[C@H](C)C(=O)N[C@@H](C)C(=O)N[C@@H](CCC(=O)O)C(N)=O)[C@H](O)[C@@H](CNC(=O)CCSSCCNC(=O)CCCC[C@@H]2SC[C@@H]3NC(=O)N[C@@H]32)O[C@H]1O`, the fold change (FC) in assay [2] stood at 0.9.

Consider `CC(=O)N[C@@H]1[C@@H](O[C@H](C)C(=O)N[C@H](CO)C(=O)N[C@H](CCC(=O)O)C(N)=O)[C@H](O)[C@@H](CO)O[C@H]1O`, for which the fold change (FC) in [4] is 1.7; in [5] it was 3.4; in assay [6], 1.05.

As to `COc1cccc(-c2cn([C@H]3[C@H](O[C@H](C)C(=O)N[C@@H](C)C(=O)N[C@H](CCC(=O)O)C(N)=O)[C@@H](NC(C)=O)[C@H](O)O[C@@H]3CO)nn2)c1`, the fold change (FC) came out at 1.1 in [7], 1.05 in assay [8] and 1 in assay [9].

`CC(=O)N[C@@H]1[C@@H](O[C@H](C)C(=O)N[C@@H](C)C(=O)N[C@H](CCC(=O)O)C(N)=O)[C@H](n2cc(CNC(=O)Cc3ccc(C(F)(F)F)cc3)nn2)[C@@H](CO)O[C@H]1O`: the fold change (FC) amounted to 1.15 in assay [7], 1.1 in assay [8] and 1.35 in assay [9].

`COc1ccc(CC(=O)NCc2cn([C@H]3[C@H](O[C@H](C)C(=O)N[C@@H](C)C(=O)N[C@H](CCC(=O)O)C(N)=O)[C@@H](NC(C)=O)[C@H](OCc4ccccc4)O[C@@H]3CO)nn2)cc1`: the fold change (FC) turned out to be 1.1 in assay [7], 1.05 in assay [8] and 1.2 in assay [9].

Regarding `CC(=O)N[C@@H]1[C@@H](O[C@H](C)C(=O)N[C@@H](C)C(=O)N[C@@H](CCC(=O)O)C(N)=O)[C@H](O)[C@@H](CNC(=O)CCOCCOCCOCCOCCNC(=O)CCCC[C@@H]2SC[C@@H]3NC(=O)N[C@@H]32)O[C@H]1O`, the fold change (FC) in [2] was 1.2.

Regarding `CC(=O)N[C@@H]1[C@@H](O[C@H](C)C(=O)N(C)[C@H](C)C(=O)N[C@H](CCC(=O)O)C(N)=O)[C@H](O)[C@@H](CO)O[C@H]1O`, the fold change (FC) in [4] worked out at 1.1; in [5], 1.05; in assay [6] it was 1.3.

For `CCO[C@@H]1O[C@H](CO)[C@@H](O[C@@H]2O[C@H](CO)[C@@H](O[C@@H]3O[C@H](CO)[C@@H](O[C@@H]4O[C@H](CO)[C@@H](O)[C@H](O)[C@H]4NC(C)=O)[C@H](O[C@H](C)C(=O)N[C@@H](C)C(=O)N[C@H](CCC(=O)O)C(N)=O)[C@H]3NC(C)=O)[C@H](O)[C@H]2NC(C)=O)[C@H](O[C@H](C)C(=O)N[C@@H](C)C(=O)N[C@H](CCC(=O)O)C(N)=O)[C@H]1NC(C)=O`, the Activity in [10] stood at 80 mU.

In assay [10], `CCO[C@@H]1O[C@H](CO)[C@@H](O[C@@H]2O[C@H](CO)[C@@H](O[C@@H]3O[C@H](CO)[C@@H](O[C@@H]4O[C@H](CO)[C@@H](O)[C@H](O[C@H](C)C(=O)N[C@@H](C)C(=O)N[C@H](CCC(=O)O)C(N)=O)[C@H]4NC(C)=O)[C@H](O)[C@H]3NC(C)=O)[C@H](O[C@H](C)C(=O)N[C@@H](C)C(=O)N[C@H](CCC(=O)O)C(N)=O)[C@H]2NC(C)=O)[C@H](O)[C@H]1NC(C)=O` came in with an Activity of 800 mU.

In the case of `CC(=O)N[C@@H]1[C@@H](O[C@H](C)C(=O)N[C@H](C(=O)N[C@H](CCC(=O)O)C(N)=O)[C@@H](C)O)[C@H](O)[C@@H](CO)O[C@H]1O`, the fold change (FC) in assay [4] was determined as 1.8; in assay [5], 5; in assay [6] it was 1.15.

For `CCO[C@@H]1O[C@H](CO)[C@@H](O[C@@H]2O[C@H](CO)[C@@H](O[C@@H]3O[C@H](CO)[C@@H](O[C@@H]4O[C@H](CO)[C@@H](O)[C@H](O[C@H](C)C(=O)N[C@@H](C)C(=O)N[C@H](CCC(=O)N[C@@H](CCCCN)C(=O)N[C@H](C)C(=O)N[C@H](C)C(=O)O)C(N)=O)[C@H]4NC(C)=O)[C@H](O)[C@H]3NC(C)=O)[C@H](O[C@H](C)C(=O)N[C@@H](C)C(=O)N[C@H](CCC(=O)N[C@@H](CCCCN)C(=O)N[C@H](C)C(=O)N[C@H](C)C(=O)O)C(N)=O)[C@H]2NC(C)=O)[C@H](O)[C@H]1NC(C)=O`, the Activity in [10] came to 12.5 mU.

With `COc1ccc(CC(=O)NCc2cn([C@H]3[C@H](O[C@H](C)C(=O)N[C@@H](C)C(=O)N[C@H](CCC(=O)O)C(N)=O)[C@@H](NC(C)=O)[C@H](O)O[C@@H]3CO)nn2)cc1`, the fold change (FC) in [7] worked out at 1.1; in [8] it was 1.15; in [9], 1.55.

(Values after ChEMBL document CHEMBL5550132, “Structure-activity relationship in NOD2 agonistic muramyl dipeptides” (Eur J Med Chem, 2024).)
